Measured values as given in patent publication US10450613B2, “EGFR/NEDD9/TGF-β interactome and methods of use thereof for the identification of agents having efficacy in the treatment of hyperproliferative disorders” (Fox Chase Cancer Center, priority 2007, dated 2019).

Tests used:
[1] = tested on: cancer cells; test: Drug synergy testing (Chou-Talalay CI), cell line not stated (FIG. 17B); format: cell-based
Protocol: (§1) The coefficient of interaction (CI) between pharmacological inhibitors was established by the Chou-Talalay method (Chou et al., (1984) Adv Enzyme Regul 22:27). The software package CalcuSyn (BioSoft, UK) was used to automate calculations. Briefly, for each drug tested, an IC50 curve was established in each cell line, and used to select combination doses of drugs for subsequent synergy tests. 3500 cells were plated per well in 96-well plates. After 24 hours, cells were treated with serial dilutions of individual inhibitors, or combinations of two inhibitors maintained at a constant molar ratio. After 72 hours incubation, cell viability was measured using either CellTiter Blue (Promega, USA) or a WST1 assay (Roche Applied Science, Indianapolis, Ind.). The CI values for each dose and corresponding cytotoxicity were expressed as the fraction affected (Fa) and were calculated using CalcuSyn computer software and presented as Fa-CI plots. CI values <1 indicate synergy, and <0.5 strong synergy, between the two agents in producing cytotoxic effect.

[2] = tested on: A431 cells; test: Drug synergy testing (Chou-Talalay CI), viability; format: cell-based, human; details: 72 hours, CI <1 synergy, <0.5 strong synergy
Protocol: as §1

[3] = tested on: HCT116 cells; test: Drug synergy testing (Chou-Talalay CI), viability; format: cell-based, human; details: HCT116; 72 hours; CI <1 synergy, <0.5 strong synergy
Protocol: as §1

[4] = tested on: A431 cells; test: Cell motility, wound healing assay; format: cell-based, human; details: 0.5 μM erlotinib with 0.5 μM Stattic or 0.25 μM Ro-318220, 18 hours
Protocol: Soft agar assays were done essentially as described (10). Cells were seeded at 2000 cells per well and grown for 2-3 weeks. Colonies were stained with thiazolyl blue tetrazolium bromide, and scored using a Nikon SMZ1500 microscope coupled with Cool Snap charge coupled device camera (Roper Scientific, Inc., Tucson, Ariz.) with Image Pro-Plus software (Media Cybernetics, Silver Spring, Md.). Survival curves were based on at least two concentration points, with values determined in at least two separate experiments, with each assay done in duplicate. Drug interactions were calculated as above using CalcuSyn software (Biosoft, Ferguson, Mo.) to establish the combination index (CI). For motility assays, movement of A431 cells grown in 1% FCS into a scratched area of the monolayer was monitored with a phase contrast 10× objective using an inverted microscope (Nikon TE2000). Images were obtained every 20 min for 18 hours. Areas of migration were estimated using MetaMorph software. For both studies, analysis of variance was used to determine the treatment effect for each comparison. The logarithm of normalized ratios (to vehicle control) was used in the analysis. Multiple hypothesis testing was accounted for by the false discovery rate method of Benjamini & Hochberg (supra).

[5] = tested on: AKT; test: Western analysis of AKT activation in A431 lysates (siRNA or inhibitors), basal and EGF-stimulated; format: cell-based, human; details: serum starvation or EGF stimulation (FIG. 16)
Protocol: To measure the effect of siRNAs on the activity of EGFR effectors, cells were transfected with siRNA, and the culture media replaced with glutamine-supplemented serum-free DMEM at 24 hrs post-transfection. After overnight incubation, cells were treated with DMSO, erlotinib or PHA-680632 for 2 hrs, then either left untreated, or stimulated with EGF at 15 ng/ml for 15 minutes. Cell extracts were prepared using M-PER™ mammalian protein extraction buffer (Thermo Scientific, Rockford, Ill.) supplemented with the Halt™ phosphatase inhibitor cocktail (Thermo Scientific, Rockford, Ill.) and the Complete Mini™ protease inhibitor cocktail (Roche Diagnostics Gmbh, Manheim, Germany). Extracts were centrifuged at 15,000 g for 10 min at 4° C. Western signal detection was performed using antibodies to indicated proteins with LiCor technology (Lincoln, Nebr., USA) or standard X-ray film.

[6] = tested on: A431 cells; test: Phosphoproteomic analysis, Proteome Profiler array of 46 signaling proteins; format: cell-based, human; details: A431, serum starved, EGF-stimulated (FIG. 19A)
Protocol: For phosphoproteomic analysis, we used the Proteome Profiler™ array (R&D Systems, Minneapolis, Minn., USA) according to the manufacturer's protocol. In brief, A431 cells were grown for 24 hours in DMEM supplemented with L-glutamine and 1% FBS to 70% confluency. Cells then were either serum starved overnight or remained in the same media. Serum starved and cells incubated in 1% serum were either left untreated or incubated with IC30 concentrations of inhibitors for 3 hours. […] Serum-starved cells were subsequently stimulated with recombinant EGF (Sigma-Aldrich, USA) at 15 ng/mL for 15 minutes before lysis. For a subset of phospho-proteins, phosphorylation status was confirmed by Western blot. Quantification was done using ImageJ software.

[7] = tested on: A431 cells; test: siRNA library sensitization screen, Alamar blue (CellTiter Blue) viability, sensitization index (SI) with erlotinib, panitumumab, U0126, CPT11 vs DMSO; format: cell-based, human; details: siRNA against the named gene, false discovery rate set at 5%; for Ratio (CPT11): sensitization to CPT11; for Ratio (Erlotinib): sensitization to erlotinib
Excerpt: The custom siRNA library targeting 638 human genes was designed and synthesized with two siRNA duplexes for each gene target (Qiagen, Valencia, Calif.). Transfection conditions were established for the A431 […] (K-Ras wt, p53 mutant) cell line (data not shown) using PLK1 & GL2 siRNA controls to achieve Z′ values of 0.5 or greater. IC values using erlotinib, panitumumab, and camptothecin (CPT11) were established (data not shown). Details of establishment of Z′ factor for transfections, and statistical consideration for selection of preliminary positive candidates graphically outlined in FIG. 4B, and based on standard approaches described in detail in Whitehurst et al., (2007) Nature 446:815). For each gene targeted, two independent siRNA duplexes were combined and arrayed in 96-well plates with a layout intended to seed in regular positive siRNA (targeting PLK1) and negative control siRNA (targeting insect luciferase GL2, Thermo Fisher Scientific, USA) amongst test siRNAs. A reverse transfection protocol was used where siRNA at final concentration of 50 nM was mixed with Dharmafect 1 transfection reagent according to the manufacturer's instructions (Thermo Fisher, USA). Cells (3500 per well, resuspended in 1% FBS/DMEM) were added directly to wells using an automated liquid dispenser. At 24 hr following transfection, two replica plates were treated with drugs at previously established IC30 or 0.02% DMSO diluted in culture media. The viability at 96 hr post-transfection was assessed using Alamar blue (CellTiter Blue Viability Assay, Promega, USA). Dose-responses for each drug and cell line were retested in parallel with each screen.
For screening, A431 cells were transfected with siRNA followed by exposure to vehicle (0.02% DMSO), or drug used at inhibitory concentrations of 30% KA. Viability was determined for each target gene and normalized to the averaged GL2 viability on each plate. Sensitization index (SI) was calculated for each individual well on a 96-well plate as SI=(Vdrug/GL2drug)/(VDMSO/GL2DMSO), where V was viability in wells transfected with targeting duplexes and GL2 was the averaged viability of 4 wells with non-targeting negative control siRNA on the same plate. All calculations were automated using cellHTS package within open source Bioconductor Package (on the web at bioconductor.org) (Gentleman et al. (2004) Genome Biol. 5:R80). The effect of drug treatment on viability was measured based on the normalized viabilities in the drug treated and vehicle wells using Limma (Smyth, G. K. (2004) Statistical Applications in genetics and molecular biology 3, Article 3). Limma borrows strength across genes based on an empirical Bayes approach and identifies statistically significant changes in viability by combining information from a set of gene-specific tests. Hits were identified based on statistical significance as well as biological significance. Statistical significance was determined by p-value controlled for the false discovery rate (FDR) using the Benjamini-Hochberg step-up method (Benjamini et al. (1995) J. Royal Stat Soc B 57:289) to account for multiple testing. […] Biological significance was arbitrarily defined as an increase or decrease in SI greater than 15%. Hits identified as statistically and biologically significant were further validated.
Primary sensitizing hits obtained with erlotinib and/or cetuximab were further tested with erlotinib and DMSO in the A431 cell line by using 4 siRNA duplexes individually (the two originally used in the screen, plus two new non-overlapping RNA oligoribonucleotides), to confirm the sensitization phenotype at 10 nM and 50 nM concentrations. Hits were considered as validated by this method if at least 2 out of 4 siRNA reproduced the sensitization phenotype with SI≤0.85, FDR≤20% for each individual siRNA sequence in at least two independent experiments. […]

[8] = tested on: A431, HCT116, DLD-1, DKS-8, LoVo, SCC61, PANC-1 and MIA PaCa-2 cell lines; test: Cell line specificity of hit activity: siRNA sensitization to erlotinib, cetuximab and CPT11, and intrinsic viability; format: cell-based, human; details: network analysis of stronger hits (FIG. 14A)
Protocol: Cell line specificity of hit activity. Of the confirmed set of 61 siRNA targets identified for erlotinib in A431 cells, 45 were further tested for sensitization to erlotinib, cetuximab and camptothecin in A431 versus refractory adenocarcinoma cell lines for which optimal transfection conditions and drug sensitivity had been established. […] SI and statistical significance were calculated as in the validation experiments. All experiments were performed at least three times independently.
In subsequent data analysis, two approaches were used. […] For all experiments performed with a given cell:drug combination (e.g., A431:erlotinib, or HCT116:CPT11) averages were determined based on at least three experimental runs. […]
In additional experiments, we comparatively profiled the efficacy of the hit panel as sensitizers of erlotinib, cetuximab, and CPT11 across a set of cell lines, including A431, the colorectal adenocarcinoma cell lines HCT116, DLD-1, DKS-8, and LoVo, the head and neck squamous cell carcinoma cell line SCC61, and the pancreatic adenocarcinoma cell lines PANC-1 and MIA PaCa-2 (FIG. 13A). […] To compensate for this difference, we analyzed the data in two ways: first, by conventional threshold analysis (FIG. 13A, left), and second, by assessing the rank order of sensitization phenotype, using relaxed statistical criteria (FIG. 13A, right; see Materials and Methods). […]

O=C(Nc1cccc(Nc2nccc(Nc3cccc(C(F)(F)F)c3)n2)c1)C1CC1 [C1368]
Synergy with erlotinib (Chou-Talalay CI) [1]: synergized

Cn1cc(C2=C(c3cn(CCCSC(=N)N)c4ccccc34)C(=O)NC2=O)c2ccccc21 [Ro-318220]
Synergy with erlotinib in reducing viability (Chou-Talalay CI) [2]: synergized very significantly
Synergy with erlotinib in reducing viability (Chou-Talalay CI) [3]: synergized very significantly
Cell motility, inhibitor in combination with erlotinib [4]: significantly reduced tumor cell motility

O=[N+]([O-])c1ccc2c(c1)S(=O)(=O)C=C2 [Stattic]
Akt S473 phosphorylation, inhibitor in combination with erlotinib [5]: significantly reduced phosphorylation
Synergy with erlotinib in reducing viability (Chou-Talalay CI) [2]: synergized with erlotinib
Synergy with erlotinib in reducing viability (Chou-Talalay CI) [3]: synergized with erlotinib
Cell motility, inhibitor in combination with erlotinib [4]: no statistically significant synergy

Cn1cc(C2=C(c3cn(C4CCN(Cc5ccccn5)CC4)c4ccccc34)C(=O)NC2=O)c2ccccc21 [enzastaurin]
Akt S473 phosphorylation, inhibitor in combination with erlotinib [5]: significantly reduced phosphorylation
Synergy with erlotinib in reducing viability (Chou-Talalay CI) [2]: synergized very significantly
Synergy with erlotinib in reducing viability (Chou-Talalay CI) [3]: synergized very significantly

C#Cc1cccc(Nc2ncnc3cc(OCCOC)c(OCCOC)cc23)c1 [erlotinib]
Phosphorylation of 46 signaling proteins, single agent [6]: blocked EGF-induced activation of multiple signaling pathways

GAB2 (sense CACCAATTCTGAAGACAACTA; target sequence only, further chemistry not given here)
Ratio (CPT11) [7]: 0.83

GRB14 (sense AAGAATGTATTTCACCTGCAA; target sequence only, antisense strand not given here)
Ratio (Erlotinib) [7]: 0.54

MAP3K1 (sense CACGCATGTCAAATTCTCATA; target sequence only, antisense strand not given here)
Ratio (Erlotinib) [7]: 0.66

PRKACB: siRNA duplexes of the custom library targeting PRKACB (sense CAGCCTGTGTAGTGTGACAAA; target sequence only, antisense strand not given here)
Ratio (CPT11) [7]: 0.43
Ratio (Erlotinib) [7]: 0.53
Ratio (Panitumumab) ([7]; sensitization to panitumumab): 0.63
Sensitizing activity of stronger hits across cell lines [8]: strong sensitizers
